From patent publication US20100240040A1, “METHOD FOR SCREENING FOR SELECTIVE MODULATOR OF THE NF-KB PATHWAY ACTIVATION” (INSTITUT PASTEUR, priority 2007, published 2010)

Assays:
[1] = biological target: T1, CC2-LZ dimer (Biot-CC2-LZ/His-CC2-LZ) (Mus musculus, UniProt O88522); experiment: HTRF assay, CC2-LZ dimerization induced by ubiquitin binding; conditions: added to Biot-CC2-LZ/His-CC2-LZ mixture at nM concentration
T1 construct: made in house; Biot-CC2-LZ by chemical synthesis
Text: (§1) The Homogeneous Time Resolved Fluorescence (HTRF®) assay reagents anti-(His)6 monoclonal antibody labeled with XL665 (MABHis6-XL) and streptavidin-Europium cryptate (streptavidin-EuK) were purchased from CIS-Bio. The His-CC2-LZ peptide (SEQ ID NO: 30 and 31) was purified as described in Agou et al., 2004a and the biotin tagged CC2-LZ peptide (SEQ ID NO: 28 and 29) was chemically synthezised as described in Wyler et al., 2007.
All measurements of fluorescence resonance energy transfer (FRET) were performed using the microplate reader Mithras LB 940 (Berthold Technologies). HTRF® principle
In HTRF experiments, the pure His-CC2-LZ protein was labeled by anti-His-XL665 mAb and biot-CC2-LZ was labeled by streptavidin-EuK. […] Upon excitation of Europium cryptate at 320 nm, FRET occurs between these two fluorophores, and XL665 re-emits a specific long-lived fluorescence at 665 nm.
All experiments were carried out in a black microplate Greiner (200 μl) at 25° C. The excitation wavelength was 320 nm and the fluorescence emissions were measured at 620 nm and at 665 nm to normalize the specific signal. Fluorescence emission was recorded at both wavelengths after an 50 μs delay, which reduces background noise introduced by the media and the free acceptor molecules. The FRET signal is calculated using the following equation: […]

[2] = biological target: CC2-LZ (Mus musculus, UniProt O88522); experiment: Affinity of CC2-LZ dimerization; format: binding
Chain of CC2-LZ (O88522 250-339 limits assumed): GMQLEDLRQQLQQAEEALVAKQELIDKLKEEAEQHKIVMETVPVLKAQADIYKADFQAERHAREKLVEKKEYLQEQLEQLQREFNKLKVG

[3] = biological target: T2, Biot-CC2-LZ (Mus musculus, UniProt O88522); experiment: HTRF assay, complex with Biot-CC2-LZ (negative and positive controls); format: binding; conditions: each subunit of CC2-LZ at nM concentration, no ubiquitin
T2 construct: made in house; host or cells: chemical synthesis
Text: as §1
In HTRF experiments, the pure His-CC2-LZ protein was labeled by anti-His-XL665 mAb and biot-CC2-LZ was labeled by streptavidin-EuK. Dimerization of His-CC2-LZ and Biot-CC2-LZ leads the donor (Steptavidin-EuK) and the acceptor (anti-His-XL665) into close proximity. Upon excitation of Europium cryptate at 320 nm, FRET occurs between these two fluorophores, and XL665 re-emits a specific long-lived fluorescence at 665 nm.
All experiments were carried out in a black microplate Greiner (200 μl) at 25° C. The excitation wavelength was 320 nm and the fluorescence emissions were measured at 620 nm and at 665 nm to normalize the specific signal. Fluorescence emission was recorded at both wavelengths after an 50 μs delay, which reduces background noise introduced by the media and the free acceptor molecules. The FRET signal is calculated using the following equation:
ΔF=[(R−Rneg)/Rneg]*100 (1) […]

T1 sequence (O88522 with tags, fused parts or gaps, one chain of several): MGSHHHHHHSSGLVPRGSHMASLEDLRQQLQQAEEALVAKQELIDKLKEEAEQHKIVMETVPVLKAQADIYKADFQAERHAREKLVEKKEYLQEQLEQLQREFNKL

Row | Substance | FRET signal (in words) [1] | Kd [2] [µM] | FRET signal (in words) [3]
1 | GST: GST protein alone, control | no FRET signal was detected | – | –
2 | LEDLRQQLQQAEEALVAKQELIDKLKEEAEQHKIVMETVPVLKAQADIYKADFQAERHAREKLVEKKEYLQEQLEQLQREFNKL [CC2-LZ] | – | 22 | no FRET signal was observed
